This passage reports IC50 results from patent publication US7998948B2, “Pharmaceutical composition for treating esophageal cancer” (Eisai R&D Management Co., Ltd., priority 2007, dated 2011).

Where only a bound is given, the exact number is not on record here.

Type in all cases: cell-based
For experiment [1], the system named is OE33 human esophageal cancer cells. The experiment in a line: Inhibitory action against proliferation of human esophageal cancer cells (OE33). As to conditions: OE33, 72 h, 0E33 cells, RPMI1640 with 10% FBS, 3 days incubation, Cell Counting Kit-8, read-out: concentration of the test substance required to inhibit 50% of cell proliferation (IC50), 0E33. The procedure:
(§1) Human esophageal cancer cells (OE19, OE21 and OE33) were purchased from Dainippon Sumitomo Pharma Co., Ltd. OE19, OE21 or was suspended in RPMI1640 medium (purchased from Sigma) containing 10% FBS. The cell suspension (2×10^4 cells/ml) was dispensed into a 96-well plate (purchased from FALCON; product No. 353075) by 0.1 ml/well, and incubated at 37° C. in a 5% CO2 incubator overnight. After the incubation, 0.1 ml of the test substance diluted with RPMI1640 medium containing 10% FBS was added to each well, which was further incubated for 3 days in the 5% CO2 incubator (37° C.). After the incubation, 10 μl of Cell Counting Kit-8 (purchased from DOJINDO Laboratories) was added to each well, which were incubated for about 2 hours in the 5% CO2 incubator (37° C.). After the incubation, the absorbance of the each well was measured using a plate reader MTP-500 (Corona Electric Co., Ltd) with a measurement wavelength of 450 nm and a control wavelength of 660 nm. A ratio of absorbance (%) of each well with the test substance against the wells without the test substance was determined, and based on this ratio, the concentration of the test substance required to inhibit 50% of cell proliferation (IC50; μM) was determined and the results are shown in Table 1.

For experiment [2], the system named is OE19 human esophageal cancer cells. As to the kind of experiment: Inhibitory action against proliferation of human esophageal cancer cells (OE19). As to conditions: OE19, 72 h, 0E19 cells, RPMI1640 with 10% FBS, 3 days incubation, Cell Counting Kit-8, read-out: concentration of the test substance required to inhibit 50% of cell proliferation (IC50), 0E19. The procedure:
as §1

For experiment [3], the system named is OE21 human esophageal cancer cells. As to the kind of experiment: Inhibitory action against proliferation of human esophageal cancer cells (OE21). The conditions noted are these: OE21, 72 h, 0E21 cells, RPMI1640 with 10% FBS, 3 days incubation, Cell Counting Kit-8, read-out: concentration of the test substance required to inhibit 50% of cell proliferation (IC50), 0E21. The procedure: as §1
Background: Formazan colour is commonly taken as a measure of viable cells.

With `O=C(Nc1cc(Oc2cc(F)c(NC(=O)C3(C(=O)Nc4ccc(F)cc4)CC3)cc2F)ccn1)N1CC(CO)C1` [N-(2,5-Difluoro-4-{[2-({[3-(hydroxymethyl)azetidin-1-yl]carbonyl}amino)pyridin-4-yl]oxy}phenyl)-N′-(4-fluorophenyl)cyclopropane-1,1-dicarboxamide], the IC50 in experiment [1] came out at 0.25 µM; in experiment [2], 3.2 µM; in experiment [3], 7.4 µM.

As for `CN1CCN(C2CCN(C(=O)Nc3cc(Oc4cc(F)c(NC(=O)C5(C(=O)Nc6ccc(F)cc6)CC5)cc4F)ccn3)CC2)CC1` [N-(2,5-Difluoro-4-{[2-({[4-(4-methylpiperazin-1-yl)piperidin-1-yl]carbonyl}amino)pyridin-4-yl]oxy}phenyl)-N′-(4-fluorophenyl)cyclopropane-1,1-dicarboxamide], the results for the IC50 in experiment [1], in experiment [2] and in experiment [3] were 0.67 µM, 3.5 µM and 3 µM, respectively.

On to `CN1CCC(N(C)C(=O)Nc2cc(Oc3cc(F)c(NC(=O)C4(C(=O)Nc5ccc(F)cc5)CC4)cc3F)ccn2)CC1` [N-(2,5-Difluoro-4-{[2-({[methyl(1-methylpiperidin-4-yl)amino]carbonyl}amino)pyridin-4-yl]oxy}phenyl)-N′-(4-fluorophenyl)cyclopropane-1,1-dicarboxamide], for which the IC50 in experiment [1] worked out at 0.14 µM; in experiment [2] it was 2.3 µM; in experiment [3], 1.7 µM.

Take `CN1CCN(C2CCN(C(=O)Nc3cc(Oc4ccc(NC(=O)C5(C(=O)Nc6ccc(F)cc6)CC5)c(F)c4)ccn3)CC2)CC1` [N-(2-Fluoro-4-{[2-({[4-(4-methylpiperazin-1-yl)piperidin-1-yl]carbonyl}amino)pyridin-4-yl]oxy}phenyl)-N′-(4-fluorophenyl)cyclopropane-1,1-dicarboxamide]: the results for the IC50 in experiment [1], in experiment [2] and in experiment [3] were 1.6 µM, 3.6 µM and 5.5 µM, respectively.

Take `O=C(Nc1cc(Oc2ccc(NC(=O)C3(C(=O)Nc4ccc(F)cc4)CC3)c(F)c2)ccn1)N1CCC1` [N-[4-({2-[(Azetidin-1-ylcarbonyl)amino]pyridin-4-yl}oxy)-2-fluorophenyl]-N′-(4-fluorophenyl)cyclopropane-1,1-dicarboxamide]: the results for the IC50 in experiment [1], in experiment [2] and in experiment [3] were 0.18 µM, 4.2 µM and greater than 10 µM, respectively.

On to `O=C(Nc1cc(Oc2cc(F)c(NC(=O)C3(C(=O)Nc4ccc(F)cc4)CC3)cc2F)ccn1)N1CC(O)C1` [N-{2,5-Difluoro-4-[(2-{[(3-hydroxyazetidin-1-yl)carbonyl]amino}pyridin-4-yl)oxy]phenyl}-N′-(4-fluorophenyl)cyclopropane-1,1-dicarboxamide], for which the IC50 in experiment [1] amounted to 0.24 µM; in experiment [2] it was 5.2 µM; in experiment [3] it was 6.4 µM.
